Measurements taken from patent US20240335395A1, “COMPOSITIONS AND METHODS FOR PREVENTING AND/OR TREATING DISEASE ASSOCIATED WITH IL-23 EXPRESSION” (ALLSPIM, priority 2021, published 2024).

Columns and labels:
IL-1β, IL6 and TNFalpha = test: Endometriosis mouse model, cytokines in cell-free peritoneal lavage (ELISA); type: in vivo; conditions: 50 mg/kg/day, 5 times a week, 6 weeks
Description: Experimental design. Balb/C female mice (10 weeks old) were habituated for 3 days to take a jelly containing (group EDT+2,4D) or not (groups No EDT and EDT+Vehicle) the compound. Surgical implantation of endometrial tissue from syngenic female in peritoneum, was performed at day 0 for groups EDT+Vehicle and EDT+2,4D. […] The vehicle or treatment was then given 5 times a week (50 mg/kg/day) during 6 weeks. Mice were then sacrificed and the peritoneal inflammation was assessed. All the details of the protocol are depicted in FIG. 27. Cytokine measurement in cell-free peritoneal lavage. After mice were euthanized, 5 mL of PBS was injected into the peritoneal cavity and the diluted peritoneal fluid containing the cells was then retrieved. […] Cytokine concentration was assessed by ELISA kit in the peritoneal fluid (ThermoFisher, Mouse IL-1β, IL6 and TNFalpha Uncoated ELISA). […] The optical density was read with the Clariostar Plus Microplate Reader (BMG LABTECH), through the Clario software. Concentrations were calculated from a standard curve according to the manufacturer's protocol. Phenotypic study of immune cells from the peritoneal cavity assessed by flow cytometry. The pelleted peritoneal cells were resuspended in PBS-2% FBS and counted. […] All data were collected on LSR Fortessa flow cytometer (BD Bioscience, USA) and analyzed with FlowJo software. […]

SOD1 G93A mice = test: SOD1 G93A mouse model of ALS, motor symptoms and neuroscore; type: in vivo; conditions: 50 mg/kg daily oral in gel from 21 days post-natal
Text: Animals. The ALS mouse model is the SOD1 G93A (Gurney et al. Science 1994). Mutations in the SOD1 gene represent about 20% of the mutations in human familiar forms of ALS. Mice with multiple human transgenes with the G93A mutation in the SOD1 gene develop a progressive muscle paralysis and a loss of spinal motor neurons as in human patients. We used the high expressor lines (Jackson Labs #002726 B6SJL-Tg(SOD1*G93A)1 Gur/J) that contains at least 15 copies of the human transgene. SOD1 G93A males are crossed with B6/SJL females (Janvier Labs #SH-B6SJL-F1; hybrid model B6SJLF1/JRj). Genotyping allows us to identify the transgenic animals in the litter.
Symptoms progression is assessed using a neuroscore grid as in Hatzipetros et al. JoVE 2015. Mice are euthanized when they are transitioning from neuroscore 2 to neuroscore 3 (full paralysis of one hindlimb). This transition happens about 120-130 days post-natal in our breeding conditions and in the absence of the 2,4-D treatment. Non transgenic littermates are used as control animals.
Chronic administration of 2,4-D in mice. […] Daily delivery of the drug for a long time period (about 100 days) is not compatible with IP injections for ethics considerations and also because of the infection risk. We then rely on oral administration in a gel using a method modified from Lei Zhang, Star Protocol 2021. Briefly, the gel is produced by mixing alimentary gelatin (8%, Vahiné) in a 2% sucralose solution (Myprotein, zero calory, no flavor) and by heating this mixture at 60° C. for 20-30 minutes until clarification. An artificial flavor, for instance “cheese flavor” (Arôme Alimentaire Emmental 58 ml Cuisineaddict), 2 microliters/milliliter), may be added to this preparation along with some kibble grinds to powder (the same kibble as the one used in the house facility for ordinary diet) for improving palatability. This mixture is then aliquoted in individual daily portions of 315 microliters. 1 to 2 mg of 2,4-D (depending on the mouse body weight, 50 mg of 2,4-D per kg of mouse body weight) is added to each portion while the mixture is still warm (2,4-D is not added in the vehicle portions given to untreated animals). This mixture solidifies in a jelly form upon cooling. The gel can be kept in a fridge (4° C.) for 6 days. We usually have 4 mice (males or females) per cage. To feed the mice with 2,4-D we remove the ordinary kibbles (sometime 4 hours before) and we physically isolated each mouse in a corner of the cage with a plexiglass cross placed in the cage to separate four compartments. One portion jelly is placed at the bottom of each compartment until the mouse has eaten it. In the case the mouse has not eaten the full portion after 3 hours, we evaluate how much was taken by the mouse. […]

## COc1cc(O)c(OC)c(O)c1C(=O)/C=C/c1ccccc1 [2,4-D, 2′,4′-dihydroxy-3′,6′-dimethoxychalcone]
IL-1β, IL6 and TNFalpha
  concentration of IL1-β, IL-6 and TNF-α in peritoneal lavage: tended to normalize
SOD1 G93A mice
  neuroscore progression (from 0 to 3): tends to slow down
  time at which neuroscore 3 is reached (survival time): tends to be delayed
  time at which the axial tonus is lost, compared with vehicle: significantly extends
  time at which the full hindlimb extension is lost, compared with vehicle: significantly extends
